Test results from paper PMC9935901, “B-lymphoid tyrosine kinase-mediated FAM83A phosphorylation elevates pancreatic tumorigenesis through interacting with β-catenin” (Signal Transduction and Targeted Therapy, 2023).

Tests used:
[1] = tested on: BLK (FAM83A tyrosine phosphorylation); test: BLK-mediated FAM83A tyrosine phosphorylation in HEK293T cells; format: cell-based; conditions: 10 μM; HEK293T with or without BLK overexpression; n = 3
Excerpt: Cell lysates were used for IP and western blotting with the indicated antibodies (n = 3). f Level of total tyrosine phosphorylation of Flag-tagged FAM83A and its Y138A mutant in HEK293T cells after BLK kinase knockdown using two specific small interfering RNAs (siBLK#1 and siBLK#2). Cell lysates were used for IP and western blotting with the indicated antibodies (n = 3). g, h Level of total tyrosine phosphorylation of Flag-tagged FAM83A and its Y138A mutant in HEK293T cells with or without BLK kinase overexpression and saracatinib (BLK inhibitor, 10 μM)/PP2 (LCK or FYN inhibitor, 10 μM) treatment. Cell lysates were used for IP and western blotting with the indicated antibodies (n = 3). i The BLK kinases was obtained from the immunoprecipitate of HEK293T cell lysates that transfected with either HA-tagged BLK wild-type, BLK kinase-dead mutant (Y389A) or BLK constitutive activated mutant with the deletion of the C-terminal auto-inhibitory domain (BLK ΔC) using HA tag antibody. Then the BLK kinases were incubated with the in vitro purified GST-tagged FAM83A protein at 30 °C for 30 min with or without BLK inhibitor saracatinib, and then the reaction products were subjected to western blotting assay (n = 3)
Immunoprecipitation and Western blotting were performed as described previously.[35] GAPDH protein levels were used as loading controls. […]

[2] = tested on: pancreatic cancer stem cells (PaCSCs), primary PDAC cultures; conditions: primary PDAC cultures from patient-derived xenografts; ref not given; cited from earlier work
Excerpt: Intricate communication between pancreatic cancer cells and their surrounding environment is driven by a dynamic signaling network of cellular and matrix remodeling enzymes, cytokines, chemokines, and growth factors, which collectively promote tumor growth and treatment resistance. The non-receptor SRC kinase family signaling network is increasingly recognized as a key player in pancreatic tumorigenesis.[38],[39] Treatment of primary PDAC cultures established from patient-derived xenografts with dasatinib or PP2 reduced the clonogenic, self-renewal, and tumor-initiating capacity of pancreatic ...

[3] = tested on: PANC-1 xenograft tumor (FAM83A re-expression); test: Mouse xenograft of FAM83A re-expressing PANC-1 cells, Wnt inhibitor; format: in vivo, nude mice (human PANC-1 cells); conditions: 20 mg/kg intravenous (Fig. 6 legend) or 50 mg/kg intraperitoneal twice a week (methods); n = 6 or 5
Experimental: The Wnt inhibitor XAV939 (20 mg/kg) was intravenously injected into the caudal vein of the nude mice one week later after xenograft formation. c Growth curve showing the changes in the tumor volume in mice in different groups from the injection (n = 6 or 5). d Weight of the excised tumors in each group (n = 6 or 5). e, f Representative images of lung and colon metastasis of the nude mice model that tail intravenous injected with PANC-1 cells stably expressed Flag-tagged wild-type FA[MUT], [MUT], or [MUT] mutants were shown. g The number of lung or colon metastasis was quantified per field (n = 5). h, i Representative images and quantification of the soft agarose and plate colony formation assays of PANC-1 cells stably expressed Flag-tagged wild-type FA[MUT], [MUT], or [MUT] mutants (n = 3). j, k Representative images and quantification of the transwell assays without matrigel of PANC-1 cells stably expressed Flag-tagged wild-type FA[MUT], [MUT] or [MUT] mutants (n = 3). l Representative H&E staining images and immunohistochemical images of Ki67, C-myc, and AXIN2 expression in excised tumors tissues. *P < 0.05; **P < 0.01; ***P < 0.001. […] The length and width of the mouse xenograft tumors were measured every 5 days with calipers, and tumor volume (V) was calculated with the following formula: V = [(length × width × width)/2]. […]

| Compound | FAM83A tyrosine phosphorylation [1] | clonogenic, self-renewal, and tumor-initiating capacity of PaCSCs [2] | xenograft tumor size [3] |
| --- | --- | --- | --- |
| CC(C)(C)n1nc(-c2ccc(Cl)cc2)c2c(N)ncnc21 [PP2] | not LYN kinase inhibitor PP2 | reduced the clonogenic, self-renewal, and tumor-initiating capacity of pancreatic cancer stem cells |  |
| Oc1nc(-c2ccc(C(F)(F)F)cc2)nc2c1CSCC2 [XAV939] |  |  | inhibits the xenograft tumor size mediated by FAM83A re-expression |
| Cc1nc(Nc2ncc(C(=O)Nc3c(C)cccc3Cl)s2)cc(N2CCN(CCO)CC2)n1 [dasatinib] |  | reduced the clonogenic, self-renewal, and tumor-initiating capacity of pancreatic cancer stem cells |  |
| CN1CCN(CCOc2cc(OC3CCOCC3)c3c(Nc4c(Cl)ccc5c4OCO5)ncnc3c2)CC1 [saracatinib] | could be reduced by the BLK kinase inhibitor saracatinib |  |  |
